In general, solubility (kinetic) refers to solubility judged after dilution from a stock solution rather than from solid.

In brackets after ≈: the same amount, converted by molar mass.

The conditions of this series: buffer; pH 7.4; 200.0 µM.
In the case of `COc1ccccc1NC(=O)Cc1cccc2ccccc12`, the kinetic solubility was 2.1 µg/mL (≈ 7.21 µM).

On to `O=C(CN1CCN(c2ccc(F)cc2)CC1)Nc1ccccc1`, for which the kinetic solubility is > 47 µg/mL.

Compound `CCS(=O)c1scc(-c2ccc(Cl)cc2)c1C#N` (stereo unspecified) returned a solubility (kinetic) of 20.9 µg/mL (≈ 70.7 µM).

As to `COc1ccc2[nH]c3c(=O)n(CCN4CCOCC4)cnc3c2c1`, the kinetic solubility is > 49.3 µg/mL.

`Cc1c(C#N)c2ccccc2n1C` returned a solubility (kinetic) of 19.9 µg/mL (≈ 117 µM).

The compound `O=C(O)CSCC(=O)N(c1ccccc1)c1ccccc1` returned a kinetic solubility of 42.9 µg/mL (≈ 142 µM).

In the case of `Cc1ccc(C(CNC(=O)c2ccco2)N2CCN(C)CC2)cc1` (stereo unspecified), the kinetic solubility was > 49.1 µg/mL.

On to `COC(=O)c1ccc(S(=O)(=O)N2CCCCCC2)n1C`, for which the solubility (kinetic) was > 45.1 µg/mL.

`COc1ccc(C(=O)CN2C(=O)COc3ccccc32)cc1`: the solubility (kinetic) was determined as 43.1 µg/mL (≈ 145 µM).

For the compound `COc1ccccc1OCCN(C#N)c1nc(N(C)C)nc(N(C)C)n1`, the solubility (kinetic) stood at 6.3 µg/mL (≈ 17.6 µM).

As to `O=C1c2ccc([N+](=O)[O-])cc2C(=O)N1Cc1cccnc1`, the kinetic solubility is > 42.5 µg/mL.

In the case of `O=C(CN1CCOCC1)NNC(=S)Nc1ccccc1`, the kinetic solubility is > 44.2 µg/mL.

As for `CSc1ccccc1NC(=O)CN(C)C(=O)COc1ncnc2ccccc12`, the kinetic solubility is 45.1 µg/mL (≈ 114 µM).

Regarding `COc1cc(C)c(S(=O)(=O)N2CCOCC2)c(C)c1C`, the kinetic solubility was > 44.9 µg/mL.

As for `CCNC(=O)C1CCCN1S(=O)(=O)c1ccc2ccccc2c1` (stereo unspecified), the solubility (kinetic) is > 49.9 µg/mL.

In the case of `Cc1cc(C)nc(/N=C(\NC(=O)C(C)(C)C)Nc2ccccc2)n1`, the solubility (kinetic) stood at 1.8 µg/mL (≈ 5.53 µM).

Compound `CC12CC3(C)CC(C)(C1)CC(C(N)=O)(C2)C3` came in with a kinetic solubility of 31 µg/mL (≈ 140 µM).

Consider `CC(=O)c1ccc(N2C(=O)C3C4C=CC(CC4)C3C2=O)cc1` (stereo unspecified), for which the kinetic solubility was > 44.3 µg/mL.

With `Cc1ccc(-n2c(/C=C/c3ccccn3)nc3ccccc3c2=O)cc1`, the solubility (kinetic) came to 0.6 µg/mL (≈ 1.77 µM).

`CCc1nc2ccccc2c(C(=O)NCc2ccccc2)c1C` came in with a solubility (kinetic) of 33.9 µg/mL (≈ 111 µM).

For `CO/N=C/C=C1/N(C)c2ccccc2C1(C)C`, the kinetic solubility is 19.4 µg/mL (≈ 84.2 µM).

Regarding `COc1ccc(S(=O)(=O)n2c([N+](=O)[O-])cnc2C)c(C)c1C`, the solubility (kinetic) was 45.2 µg/mL (≈ 139 µM).

Regarding `O=C(CCc1ccccc1)Nc1ccccc1C(=O)N1CCOCC1`, the kinetic solubility was > 50.8 µg/mL.

For the compound `CCCC(=O)NC(=S)Nc1ccc(CN2CCOCC2)cc1`, the kinetic solubility was > 48.2 µg/mL.

Consider `Cc1ccc(C(=O)Cn2cncn2)cc1.Cl`, for which the solubility (kinetic) was > 35.7 µg/mL.

`COC(=O)CCC(=O)c1ccn(S(=O)(=O)c2ccccc2)c1`: the kinetic solubility came to 44.6 µg/mL (≈ 139 µM).

In the case of `CC1(c2ccc([N+](=O)[O-])cc2)NC(=O)NC1=O` (stereo unspecified), the solubility (kinetic) was > 35.3 µg/mL.

Regarding `O=C(Cc1ccc(Br)cc1)NCCc1ccc(F)cc1`, the kinetic solubility stood at 14.9 µg/mL (≈ 44.3 µM).

Turning to `O=C(CN1C(=O)NC2(CCc3ccccc32)C1=O)Nc1cccc(Cl)c1` (stereo unspecified), the kinetic solubility turned out to be 54.2 µg/mL (≈ 147 µM).

Turning to `COc1ccc(N2CCN(C(=O)Cc3ccc(Cl)cc3)CC2)cc1`, the solubility (kinetic) was 50.1 µg/mL (≈ 145 µM). The solubility kinetic values of the last two compounds are within 1.5-fold of each other.

Take `NC(=O)C1(c2ccccc2)CCC(=O)N1c1ccccc1` (stereo unspecified): the kinetic solubility is > 42 µg/mL.

On to `O=C(OCC(=O)N1CCCCC1)c1cccs1`, for which the kinetic solubility was > 38 µg/mL.

`Cc1nc2cccc(C(=O)Oc3ccc([N+](=O)[O-])cc3)c2o1` returned a kinetic solubility of 10.1 µg/mL (≈ 33.9 µM).

For `O=[N+]([O-])c1cccc(NC(=S)N2CCc3ccccc32)c1`, the kinetic solubility came out at 7.6 µg/mL (≈ 25.4 µM).

In the case of `c1cnc(-c2noc(CN3CCN(C4CCCC4)CC3)n2)cn1`, the kinetic solubility was > 47.2 µg/mL.

Consider `CC(C)c1ccc(NC(=O)N2CCOCC2)cc1`, for which the kinetic solubility was > 37.2 µg/mL.

`[O-][n+]1ccccc1/C=C/c1ccccc1`: the kinetic solubility was > 29.6 µg/mL.

Take `Cc1ccc(C(=O)Nc2nc(-c3ccccn3)cs2)o1`: the solubility (kinetic) is 37.1 µg/mL (≈ 130 µM).

Compound `CC(=O)Nc1ccc2nc(NC(=O)c3cccs3)sc2c1` displayed a solubility (kinetic) of 3.6 µg/mL (≈ 11.3 µM). Against the preceding compound, the solubility kinetic is about 10-fold lower.

Compound `Cn1c(=O)[nH]c(=O)c2c1nc(N1CCNCC1)n2Cc1ccccc1` displayed a solubility (kinetic) of 45.8 µg/mL (≈ 135 µM).

Take `Cc1ccc([N+](=O)[O-])c(OCCN2C(=O)NC(C)(C)C2=O)c1`: the solubility (kinetic) was > 46.1 µg/mL.
